# Assay results taken from patent US12403184B2, “Compositions and methods for treating neurodegenerative disroders” (priority 2018, dated 2025).
# Where no end group is shown, it is not given here.
# What was measured:
# [1] = tested on: neurons derived from HD patient-iPS cells; experiment: Mitochondrial and neuronal morphology in neurons derived from iPS cells; type: cell-based, human
# Method: (§1) iPS cells from a normal subject and a HD patient (carrying 41 CAG repeats) were differentiated into neurons using the protocol from our previous studies. Briefly, the iPS cells were plated onto 6-well plates precoated with 2.5% Matrigel and allowed to reach 90% confluence in feeder-free medium. For the first 10 days, the cells were treated with SB431542 (10 μM; Tocris Bioscience) and Noggin (100 ng/ml) in Neural Media (NM) containing Neurobasal and DMEM (1:1), B-27 supplement minus vitamin A (50×, Invitrogen), N2 supplement (100×, Invitrogen), GlutaMax (Invitrogen, 100×), FGF2 ([…]) and EGF ([…]), and 100 units/ml penicillin and 100 μg/ml streptomycin). For the next 10 days, the cells were treated with human recombinant Sonic hedgehog (SHH, 200 ng/ml), DKK1 (100 ng/ml) and BDNF (20 ng/ml), and 10 μM Y27632 (Sigma) in neuronal differentiation medium containing Neurobasal and DMEM (1:3), B27, N2, GlutaMax, and PS. Cells were then switched to treatment with BDNF (20 ng/ml), ascorbic acid (200 μM, Sigma-Aldrich), cAMP (0.5 mM, Sigma-Aldrich), and Y27632 (10 μM) in neuronal differentiation medium. All growth factors were purchased from PeproTech (Rocky Hill, NJ, USA). Twenty days after the initiation of differentiation, the neurons (about 5000 cells) were plated onto 12-mm poly-Dlysine/laminine-coated coverslips and grown in 24-well plates in neuronal differentiation medium.
# Neurons derived from iPS cells were stained with anti-Tom20 (a mitochondrial marker) and anti-GAD67 (a striatal neuronal marker). Quantitation of mitochondrial length along the neurites was conducted only in the neurons immuno-positive for GAD67. To analyze dendrite and axon outgrowth of neurons, cells were stained with anti-MAP2 (a dendritic marker) and anti-GAD67 or anti-Tau (an axonal marker) and anti-DARPP32 (a medium spiny neuron marker). The length of MAP2+ dendrite and Tau+ axon in the neurons immuno-positive for GAD67 or DARPP32 was quantitated, respectively. At least 50 neurons/group were counted.
# [2] = tested on: neurons derived from HD patients; experiment: Cell death by LDH release in neurons derived from iPS cells; type: cell-based, human
# Method: as §1, with “Twenty days after the initiation of differentiation, the neurons (about 5000 cells) were plated onto 12-mm poly-Dlysine/laminine-coated coverslips and grown in 24-well plates in neuronal differentiation medium.” left out
# Cells were treated as described, and cell death was determined by using Cytotoxicity Detection Kit (LDH) according to protocols recommended by the manufacturer (Roche).
# [3] = cells derived from iPS cells of normal subject
# [4] = striatal neurons derived from HD patient iPS cells
substance,measurement,setting,value
"YGRKKRRQRRRGGEDKRKT-NH2 [DA1, YGRKKRRQRRR-GG-EDKRKT-NH2]",mitochondrial morphology,[1]; [3],no observed effects
same,length of mitochondria along the neurites of GAD67+-neurons,[1]; neurons derived from HD patient-iPS cells,increased
same,MAP2+ dendritic outgrowth,[1]; [4],improved
same,Tau+ axonal outgrowth,[1]; [4],improved
same,neuronal survival,[2]; [3],no observed effects
same,cell death (LDH release),"[2]; neurons derived from HD patients, BDNF withdrawal for 24 h",decreased
